Data from US20250059610A1, “METHODS OF TREATING TUMOR” (priority 2017, published 2025).

Key:
[1] = test system: recurrent small cell lung cancer (SCLC); experiment: Clinical trial of nivolumab alone or with ipilimumab in SCLC, exploratory TMB analysis; type: in vivo, human
Text: Subjects were selects who had previously been diagnosed with SCLC, and who had previously received at least one prior platinum-containing regimen (FIG. 23).
The primary objective was to measure the objective response rate (ORR) by per RECIST v1.1. Secondary objectives included monitoring safety, overall survival (OS), progression free survival (PFS), and duration of response (DOR). Prespecified exploratory objectives included biomarker analysis and health status using the EQ-5D instrument.
TMB was determined by whole exome sequencing, using an Illumina HiSeq 2500 using 2×100-bp paired-end reads, and calculated as the total number of nonsynonymous missense mutations in the tumor. For exploratory analyses, patients were divided into 3 subgroups based on TMB tertile.

[2] = test system: NSCLC with ≥50% PD-L1 expression; conditions: first-line; cited from earlier work

Substance | ORR ([1]; high TMB) | ORR ([1]; low TMB) | ORR ([1]; medium TMB) | ORR [2] | median PFS [2]
ipilimumab: fully human, IgG1 monoclonal antibody that blocks the binding of CTLA-4 to its B7 ligands | ~46.2% | ~22.2% | ~16.0% |  | 
pembrolizumab |  |  |  | 45% | 10.3 months
